The supplement of paper PMC5908809

Legend:
[1] = system: normal NK cells expanded with K562-aAPC; experiment: drug sensitivity score (DSS) (DSS units); higher = more sensitive; extreme values may be limits of the assay; settings: 72 h; IL-2 2.5 ng/mL
Description: (§1)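 Drug sensitivity and resistance testing on K562-aAPC-expanded normal NK cells: 5 concentrations (10-fold steps over a 10,000-fold range), 72 h at 37 °C, viability by CellTiter-Glo normalised to DMSO and benzethonium chloride controls; DSS from the fitted curve.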

IMC-1 (IL-2 20 ng/mL) [2] = experiment: percent inhibition of viability; higher = more inhibition; settings: 72 h
KAI3 (IL-2 2.5 ng/mL) [3] = experiment: as above; settings: 72 h
[4] = system: normal primary NK cells, pool 1 (3 donors) (IL-2 2.5 ng/mL); experiment: as above; settings: 72 h
KHYG-1 (IL-2 2.5 ng/mL) [5] = experiment: as above; settings: 72 h
SNK-6 (IL-2 2.5 ng/mL) [6] = experiment: as above; settings: 72 h
NK-YS (IL-2 2.5 ng/mL) [7] = experiment: as above; settings: 72 h
[8] = system: normal primary NK cells, pool 3 (3 donors) (IL-2 2.5 ng/mL); experiment: as above; settings: 72 h
[9] = system: normal primary NK cells, pool 1 (3 donors), resting (IL-2 0 ng/mL); experiment: as above; settings: 72 h
[10] = system: normal primary NK cells, pool 2 (3 donors) (IL-2 2.5 ng/mL); experiment: as above; settings: 72 h
NK-92 (IL-2 2.5 ng/mL) [11] = experiment: as above; settings: 72 h
DERL-7 (IL-2 2.5 ng/mL) [12] = experiment: as above; settings: 72 h
YT (IL-2 2.5 ng/mL) [13] = experiment: as above; settings: 72 h
NKL (IL-2 2.5 ng/mL) [14] = experiment: as above; settings: 72 h
IMC-1 (IL-2 20 ng/mL) [15] = experiment: drug sensitivity score (DSS) (DSS units); higher = more sensitive; extreme values may be limits of the assay; settings: 72 h
KAI3 (IL-2 2.5 ng/mL) [16] = experiment: as above; settings: 72 h
[17] = system: normal primary NK cells, pool 1 (3 donors) (IL-2 2.5 ng/mL); experiment: as above; settings: 72 h
KHYG-1 (IL-2 2.5 ng/mL) [18] = experiment: as above; settings: 72 h
SNK-6 (IL-2 2.5 ng/mL) [19] = experiment: as above; settings: 72 h
NK-YS (IL-2 2.5 ng/mL) [20] = experiment: as above; settings: 72 h
[21] = system: normal primary NK cells, pool 3 (3 donors) (IL-2 2.5 ng/mL); experiment: as above; settings: 72 h
[22] = system: normal primary NK cells, pool 1 (3 donors), resting (IL-2 0 ng/mL); experiment: as above; settings: 72 h
[23] = system: normal primary NK cells, pool 2 (3 donors) (IL-2 2.5 ng/mL); experiment: as above; settings: 72 h
NK-92 (IL-2 2.5 ng/mL) [24] = experiment: as above; settings: 72 h
DERL-7 (IL-2 2.5 ng/mL) [25] = experiment: as above; settings: 72 h
YT (IL-2 2.5 ng/mL) [26] = experiment: as above; settings: 72 h
NKL (IL-2 2.5 ng/mL) [27] = experiment: as above; settings: 72 h
[28] = system: normal NK cells expanded with K562-aAPC; experiment: percent inhibition of viability; higher = more inhibition; settings: 72 h, IL-2 2.5 ng/mL
Description: as §1

NCC(=O)Nc1ccc(-n2nc(C(F)(F)F)cc2-c2ccc3c(ccc4ccccc43)c2)cc1 (max concentration tested 25000 nM)
Settings	drug sensitivity score
DERL-7 (IL-2 2.5 ng/mL) [25]	1.36
IMC-1 (IL-2 20 ng/mL) [15]	8.71
KAI3 (IL-2 2.5 ng/mL) [16]	8.11
KHYG-1 (IL-2 2.5 ng/mL) [18]	11.9
NK-92 (IL-2 2.5 ng/mL) [24]	8.05
NK-YS (IL-2 2.5 ng/mL) [20]	12.3
NKL (IL-2 2.5 ng/mL) [27]	6.99
SNK-6 (IL-2 2.5 ng/mL) [19]	9.36
YT (IL-2 2.5 ng/mL) [26]	7.45
[1]	7.63
[17]	0.67
[21]	6.06
[22]	1.49
[23]	6.08

percent inhibition of viability [%]
Settings	2.5 nM	25 nM	250 nM	2500 nM	25000 nM
DERL-7 (IL-2 2.5 ng/mL) [12]	-6.63	0.68	3.86	-3.39	34.2
IMC-1 (IL-2 20 ng/mL) [2]	1.94	6.76	5.99	19.6	101
KAI3 (IL-2 2.5 ng/mL) [3]	13.1	14.3	13.5	14.9	104
KHYG-1 (IL-2 2.5 ng/mL) [5]	9.05	11.9	21.5	43.8	84.5
NK-92 (IL-2 2.5 ng/mL) [11]	-3.92	-7.91	18.1	14.3	106
NK-YS (IL-2 2.5 ng/mL) [7]	2.51	6.9	13.3	53.1	101
NKL (IL-2 2.5 ng/mL) [14]	9.41	11.2	10.1	18.2	76.8
SNK-6 (IL-2 2.5 ng/mL) [6]	2.2	12.3	18	28	101
YT (IL-2 2.5 ng/mL) [13]	8.95	9.77	11.9	10.6	104
[4]	4.23	-5.3	6.37	-4.79	24.2
[8]	-4.48	-1.93	9.24	3.09	101
[9]	-7.15	-17.6	-5.36	-14.6	41.8
[10]	-4.35	-2.12	12.8	2.37	102
[28]	1.57	3.13	3.22	12.5	101

CCOC(=O)CCNc1cc(N2CCc3ccccc3CC2)nc(-c2ccccn2)n1 [GSK-J4] (max concentration tested 100000 nM)
Settings	drug sensitivity score
DERL-7 (IL-2 2.5 ng/mL) [25]	18.9
IMC-1 (IL-2 20 ng/mL) [15]	22.9
KAI3 (IL-2 2.5 ng/mL) [16]	17.5
KHYG-1 (IL-2 2.5 ng/mL) [18]	21.2
NK-92 (IL-2 2.5 ng/mL) [24]	25.2
NK-YS (IL-2 2.5 ng/mL) [20]	17.6
NKL (IL-2 2.5 ng/mL) [27]	17.6
SNK-6 (IL-2 2.5 ng/mL) [19]	18.1
YT (IL-2 2.5 ng/mL) [26]	18.9
[1]	16.9
[17]	20.2
[21]	19.8
[22]	22.6
[23]	17.5

percent inhibition of viability [%]
Settings	10 nM	100 nM	1000 nM	10000 nM	100000 nM
DERL-7 (IL-2 2.5 ng/mL) [12]	-0.14	7.18	14.4	93.4	99.4
IMC-1 (IL-2 20 ng/mL) [2]	-5.61	-2.96	39.7	97	100
KAI3 (IL-2 2.5 ng/mL) [3]	-4.58	1.93	2.78	94.3	98.9
KHYG-1 (IL-2 2.5 ng/mL) [5]	-1.03	-1.4	20	101	99.2
NK-92 (IL-2 2.5 ng/mL) [11]	-9.95	-0.92	60.9	104	98.1
NK-YS (IL-2 2.5 ng/mL) [7]	-1.22	-3.86	-1.41	98.6	99.6
NKL (IL-2 2.5 ng/mL) [14]	-0.55	-7.46	-8.29	104	98.2
SNK-6 (IL-2 2.5 ng/mL) [6]	-0.34	7.09	6.11	94.8	99.7
YT (IL-2 2.5 ng/mL) [13]	-1.98	-3.85	4.52	104	99.3
[4]	-2.65	-4.87	13.6	97.9	99.8
[8]	-2.08	-5.17	19.9	94	99.5
[9]	-7.04	-16	34.7	96.2	99
[10]	-5.62	-2.09	5.39	92.4	98.7
[28]	-1.25	-3.45	-1.63	93.7	99.5
